Earlier results as cited in patent publication US11351152B2, “Method and composition for treating seizure disorders” (India Globalization Capital, Inc., priority 2016, dated 2022).

Key:
single patient = settings: 900-1200 mg of cannabidiol a day for 10 months
epileptic patients = settings: 200-300 mg of cannabidiol per day in combination with standard antiepileptic drugs, 12 epileptic patients
patients = settings: 200-300 mg of cannabidiol in combination with regular medication

Question: For C=C(C)[C@@H]1CCC(C)=C[C@H]1c1c(O)cc(CCCCC)cc1O [cannabidiol], which frequency of seizures (single patient) is on record?
Answer: markedly reduced the frequency of seizures

Question: And the seizure frequency (epileptic patients)?
Answer: no significant improvement in seizure frequency

Question: And the improvement versus placebo (patients)?
Answer: showed improvement over those that received a placebo

Question: And the unwanted side effect (patients)?
Answer: Mild sedation
